“Also recorded” adds a separate entry of the source.
Tests used:
Elastase B [1] = experiment: elastase (Elastin Congo Red) assay, wild type strain PAO1; format: cell-based, P. aeruginosa PAO1; conditions: wild type PAO1, no exogenous autoinducers
Experimental: (§1) Pyocyanin, elastase, and biofilm were assayed as previously described (Smith et al., Chem. Biol. 10:81-89 (2003), which is hereby incorporated by reference in its entirety). Elastase activity produced by P. aeruginosa in the presence of AIs and competing 3-oxo-C12-D10 was determined by measuring breakdown of the substrate Elastin Congo Red.
(§2) For the elastase B assay, cells (PAO-JP2) were grown overnight in PTSB media (5% Peptone, 0.1% Tryptic Soy Broth) at 37° C., washed and diluted to an OD600 of 0.05, grown to mid-log phase, washed again, and re-suspended to an OD600 of 0.05. The culture was then added to test tubes containing test compound(s) and grown for 6 hours. Elastase B activity was quantified by incubation of 100 μl of filtered culture supernatant with 5 mg Elastin Congo Red substrate and 1 ml of 10 mM Tris pH 7.2, 1 mM CaCl2 for 6 hours at 37° C. with agitation. Elastase B activity is represented by the OD495 of the enzyme assay following reaction quenching with EDTA and centrifugation to remove unreacted substrate, divided by the OD600 of the cell culture. The same assay was run with strain PAO-1, however no exogenous autoinducers were added.

Elastase B [2] = experiment: elastase (Elastin Congo Red) assay, strain PAO-JP2; format: cell-based, P. aeruginosa PAO-JP2; conditions: PAO-JP2, 5 μM AI1 and 10 μM AI2
Experimental: as §1, §2

pyocyanin [3] = experiment: pyocyanin assay, strain PAO-JP2; format: cell-based, P. aeruginosa PAO-JP2; conditions: PAO-JP2, 25 μM each of AI1 and AI2; not concentration dependent over the range tested
Experimental: (§3) For the pyocyanin assay, cells were grown overnight in LB then washed in fresh media and diluted to an OD600 of 0.05. This culture was grown for 3-4 hours to mid-log phase (OD600 of 0.3-0.5), then diluted to an OD600 of 0.05, and aliquoted to test tubes containing an appropriate amount of test compound(s). Following 18 hours of growth, pyocyanin was extracted from filtered culture supernatants and quantified using standard methods (Essar et al., J. Bacteriol. 172:884-900 (1990), which is hereby incorporated by reference in its entirety).

P. aeruginosa = experiment: cell growth in the reporter assay; format: cell-based; conditions: concentrations up to 400 μM
Experimental: Based on the above hypothesis, a competition assay of 2 and 3 against AI1, using strain PAO-JP2 (plasI-LVAgfp), was performed. […] It should be noted that this inhibition experiment was performed with competition against 1 μM AI1, a concentration typically produced by wild type P. aeruginosa (Pearson et al., Proc. Natl Acad. Sci. USA 92:1490-1494 (1995), which is hereby incorporated by reference in its entirety). […] It should also be noted that cell growth was not affected by the addition of 2 or 3 at concentrations up to 400 μM. Thus, it appears that compounds 2 and 3 act as specific inhibitors of QS controlled promoters. Compound 6 was also tested for its ability to compete against AI2, but no inhibition of the rhlI-gfp reporter gene was seen.

pyocyanin [4] = experiment: pyocyanin assay, wild type strain PAO1; format: cell-based, P. aeruginosa PAO1; conditions: wild type PAO1, no AIs added
Experimental: as §3

LasR [5] = biological target: T1, LasR (Pseudomonas aeruginosa, UniProt P25084); experiment: lasI-gfp reporter antagonist (competition against AI1) assay, PAO-JP2 (plasI-LVAgfp); format: cell-based, P. aeruginosa; conditions: 100-fold excess concentration over AI1 (1 μM AI1)
T1 construct: endogenous in cells; host or cells: P. aeruginosa PAO-JP2 (lasI, rhlI) harboring plasI-LVAgfp
T1 sequence (P25084 whole entry): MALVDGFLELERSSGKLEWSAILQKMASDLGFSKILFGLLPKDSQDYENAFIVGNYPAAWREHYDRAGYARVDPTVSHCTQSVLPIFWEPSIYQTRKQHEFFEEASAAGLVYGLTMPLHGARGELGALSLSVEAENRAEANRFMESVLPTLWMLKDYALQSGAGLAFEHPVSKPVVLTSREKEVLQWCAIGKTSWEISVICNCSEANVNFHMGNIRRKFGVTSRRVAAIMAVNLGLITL
Experimental: (§4) P. aeruginosa strain PAO-JP2 (lasI, rhlI) (Rahme et al., Science 268:1899-1902 (1995), which is hereby incorporated by reference in its entirety) harboring plasI-LVAgfp (Pearson et al., Proc. Natl Acad. Sci. USA 91:197-201 (1994), which is hereby incorporated by reference in its entirety) was grown at 37° C. in LB with 300 μg/ml carbenicillin. For agonist assays, an overnight culture was diluted to an OD600 of 0.1 and transferred to wells of a 96-well plate on which test compounds had previously been added and dried. The final concentration of each analog tested was roughly 400 μM, although this is an overestimate due to purity issues. Cells were then incubated for 6 hours at 37° C. with vigorous shaking. GFP expression was detected with a Molecular Imager (BioRad) (488 nm excitation and 695 nm bandpass filter) and quantified with ImageQuant software. The OD600 of cultures was determined to normalize GFP expression to cell density.
The methods were the same as described in Example 2 (GFP Reporter Assay), except that 1 μM AI1 was added to each well in combination with the library compound. The fluorescence/OD600 of each compound competing against AI1 was reported relative to the fluorescence/OD600 of the positive control of AI1 alone, which was set to 1. When strain PAO-JP2 (prhlI-LVAgfp) was used, the positive control was 1 μM AI1 and 10 μM AI2. Eight compounds that inhibited reporter gene expression by greater than 50% were identified (see, e.g., FIG. 6).
(§5) Reporter strains were grown overnight in LB plus 300 μg/ml carbenicillin at 37° C. and diluted to an OD600 of 0.1. Following an incubation of 1 hour, 200 μl of cell culture was added to individual wells of a 96 well plate containing appropriate amount of test compound(s). Plates were incubated for 6 hours and then scanned for fluorescence emission with a Molecular Imager (488 nm excitation and 695 nm bandpass filter). Fluorescence was quantified with ImageQuant software.

LasR [6] = biological target: T1, LasR; experiment: lasI-gfp reporter agonist assay, PAO-JP2 (plasI-LVAgfp); format: cell-based, P. aeruginosa; conditions: PAO-JP2 (plasI-LVAgfp), compounds made in solution phase, increasing concentrations (1, 100, 400 μM)
Source text: Since this strain lacks the ability to produce natural AIs due to disruption of both AI synthase genes, activation of LasR relies on the addition of exogenous AI1. Expression of gfp (encoding green fluorescent protein) is under control of the LasR-AI1 inducible lasI promoter, allowing rapid screening for LasR agonists by measuring the level of GFP expression in their presence.
as §4, §5

LasR [7] = biological target: T1, LasR; experiment: lasB-lacZ reporter assay, E. coli MG4 (pKDT37); format: cell-based, P. aeruginosa; conditions: E. coli MG4 (pKDT37), 6 hour incubation
Experimental: E. coli strain MG4 (pKDT37) was grown overnight in Supplemented A media with 100 μg/mL ampicillin at 30° C. and diluted 1:100 in the same media. 1 mL of this culture was added to a test tube containing AI1 or 3-oxo-C12-D12 that had been previously aliquoted and dried. Following a 6 hour incubation at 30° C., β-galactosidase activity was determined using standard methods (Platt et al., Assays of the lac operon Enzymes In: Experiments in Molecular Genetics, Cold Spring Harbor Laboratory Press, Cold Spring Harbor, N.Y., pp. 352-355 (1972), which is hereby incorporated by reference in its entirety).
One of the new agonist structures identified from the library, D12, is 2-aminocyclohexanol (FIG. 5B). […] 3-oxo-C12-D12, containing the natural side chain, was synthesized in solution phase, and tested with both the lasI-gfp reporter as well as a lasB-lacZ reporter in Escherichia coli. E. coli strain MG4 harboring plasmid pKDT37 expresses lasR and contains a lacZ reporter gene controlled by a LasR-AI1 inducible lasB promoter (Passador et al., J. Bacteriol. 178:5995-6000 (1996), which is hereby incorporated by reference in its entirety). […] It also provides strong evidence that the agonist activity in P. aeruginosa is LasR dependent.

RhlR = biological target: T2, RhlR (Pseudomonas aeruginosa, UniProt P54292); conditions: 4-fold excess, in E. coli; cited from earlier work
T2 construct: an RhlR-AI2 controlled rhlI-gfp reporter, PAO-JP2 (prhlI-LVAgfp); endogenous in cells; host or cells: P. aeruginosa PAO-JP2 (prhlI-LVAgfp)
T2 sequence (P54292 whole entry): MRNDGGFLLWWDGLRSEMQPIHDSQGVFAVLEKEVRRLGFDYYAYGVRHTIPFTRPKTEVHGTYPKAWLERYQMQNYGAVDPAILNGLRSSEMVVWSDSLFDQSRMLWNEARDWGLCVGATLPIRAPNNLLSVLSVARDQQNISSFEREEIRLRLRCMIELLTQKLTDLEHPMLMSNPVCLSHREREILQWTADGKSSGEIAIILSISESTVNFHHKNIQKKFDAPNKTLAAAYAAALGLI

lasB promoter = conditions: 320 μM furanone competing with 0.1 μM AI1; cited from earlier work

Compound: CCCCCCCCCC(=O)CC(=O)N[C@@H]1CCC[C@H]1O (racemic) [Compound 2, N-(trans-2-hydroxycyclopentyl)-3-oxododecanamide]
- effect on elastase activity (Elastase B [1]): no significant effect
- effect on elastase activity (Elastase B [2]): no significant effect
- reduction of pyocyanin expression (pyocyanin [3]): 50%
- effect on cell growth (P. aeruginosa): not affected
- effect on pyocyanin production (pyocyanin [4]): no significant effect
- inhibition of GFP expression (lasI-gfp) (LasR [5]): approximately 70%

Compound: CCCCCCCCCC(=O)CC(=O)N[C@H]1CCOC1=O [AI1, N-(3-oxododecanoyl)-L-homoserine lactone, reference compound]
- agonist activity (induction of lasI-gfp reporter) (LasR [6]): activated; also recorded: Strong QS induction
- lasB-lacZ reporter activation (beta-galactosidase activity) (LasR [7]): activated
- reduction of binding of AI2 to RhlR (RhlR): 86%

Compound: O=C1C=C(Br)/C(=C/Br)O1 [furanone]
- inhibition (antagonist activity) (lasB promoter): Approximately 50%

Source: US7498292B2, “Combinatorial libraries of autoinducer analogs, autoinducer agonists and antagonists, and methods of use thereof” (The Research Foundation of State University of New York, priority 2002, dated 2009)
